Experimental data reported in US12187705B2, “Heteroaryl-triazole and heteroaryl-tetrazole compounds as pesticides” (Bayer Aktiengesellschaft, priority 2018, dated 2025).

Columns and labels:
Format in all cases: in vivo
[1] = test system: Myzus persicae; assay: Myzus persicae oral test; details: 120 h
Procedure, shortened: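 Feeding test: compound diluted in water was combined with IPL41 insect medium (33%+15% sugar) under a parafilm seal. A mixed population of green peach aphids fed through the membrane. Mortality (%) was scored after 5 days.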

[2] = test system: Diabrotica balteata; assay: Diabrotica balteata spray test; details: Diabrotica balteata, 168 h; 160 μg/well, wheat seeds, after 7 days; read-out: efficacy (seedlings grown)
Procedure, shortened: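 Efficacy (%) read 7 days after infesting treated seedlings with 10-20 banded cucumber beetle larvae, 100% meaning growth as in uninfected untreated control and 0% no growth. Test solutions in water containing 1000 ppm emulsifier were sprayed onto wheat seeds germinated for 1 day on agar.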

[3] = test system: Phaedon cochleariae; assay: Phaedon cochleariae spray test; details: foliar, 168 h, Chinese cabbage leaf disks, after 7 days
Method: Phaedon cochleariae—Spray Test
(§1) To produce a suitable preparation of active compound, 1 part by weight of active compound is mixed with the stated amount of solvents and is diluted with water, containing an emulsifier concentration of 1000 ppm, to the desired concentration. Further test concentrations are prepared by dilution with emulsifier containing water.
Chinese cabbage (Brassica pekinensis) leaf disks are sprayed with a preparation of the active ingredient of the desired concentration. Once dry, the leaf disks are infested with mustard beetle larvae (Phaedon cochleariae).
After 7 days mortality in % is determined. 100% means all beetle larvae have been killed and 0% means none of the beetle larvae have been killed.

[4] = test system: Spodoptera frugiperda; assay: Spodoptera frugiperda spray test; details: in Zea mays, 168 h
Procedure, shortened: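 Leaf-spray assay on maize: sections treated with active ingredient at the desired concentration in emulsifier-containing water (1000 ppm) and, once dry, exposed to armyworm caterpillars. Kill rate is expressed in percent after seven days.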

[5] = test system: Ctenocephalides felis; assay: Ctenocephalides felis oral test; details: Ctenocephalides felis, in Bos taurus, po, 48 h
Procedure, shortened: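 About 20 adult unfed fleas fed through parafilm on cattle blood containing compound (DMSO concentrate diluted in blood); blood held at 37° C., fleas at room temperature. Mortality in % scored after 2 days (100% = all killed).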

[6] = test system: Nezara viridula; assay: Nezara viridula spray test; details: in Hordeum vulgare, 96 h
Procedure, shortened: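 Barley plants infested with stink bug larvae were sprayed with compound diluted in water containing 1000 ppm emulsifier. Mortality (%) was scored after 4 days, 100% meaning all bugs killed.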

[7] = test system: Ctenocephalides felis; assay: Ctenocephalides felis in-vitro contact test adult cat flea; details: Ctenocephalides felis; 5 μg/cm^2 (=500 g/ha), after 48 hours; read-out: efficacy (fleas dead or moribund)
Procedure, shortened: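 Efficacy (% dead or moribund) was scored 48 h after adult Ctenocephalides felis were confined in tubes coated with the acetone-applied compound (900 ppm, 5 μg/cm^2). Moribund status was judged by failure to escape a 45-50° C heating plate within 5 minutes.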

[8] = test system: Anopheles funestus strain FUMOZ-R; assay: Anopheles funestus test (ANPHFU surface treatment & contact assay); details: 24 hours after contact, read-out: efficacy (mortality); for mortality at 4 mg/m2: surface concentration 4 mg/m^2, 30 minutes exposure; for mortality at 20 mg/m2: surface concentration 20 mg/m^2, 30 minutes exposure
Method: Anopheles funestus Test (ANPHFU Surface Treatment & Contact Assay)
(§2) Solvent: Aceton+2000 ppm rapeseed oil methyl ester (RME)
In order to produce a sufficient, active ingredient containing solution it is necessary to solve the test-compound in the solvent-mix (Acetone at 2 mg/ml/RME 2000 ppm). This solution is pipetted onto a glazed tile and after evaporation of the Acetone, adult mosquitoes of the species Anopheles funestus strain FUMOZ-R (Hunt et al., Med Vet Entomol. 2005 September; 19(3):271-5) are placed onto the dried surface. The exposure time is 30 minutes.
(§3) Mortality in percent (%) is determined 24 hours after contact to the treated surface. 100% mortality means that all test-insects are dead, whereas 0% means that not a single insect died.

[9] = test system: Aedes aegypti strain MONHEIM; assay: Aedes aegypti test (AEDSAE surface treatment & contact assay); details: 24 hours after contact, read-out: efficacy (mortality); for mortality at 20 mg/m2: surface concentration 20 mg/m^2, 30 minutes exposure; for mortality at 4 mg/m2: surface concentration 4 mg/m^2, 30 minutes exposure
Procedure, shortened: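 Compound dissolved in acetone (2 mg/ml) with 2000 ppm rapeseed oil methyl ester and dried onto a glazed tile. Adult mosquitoes held on the treated surface for 30 minutes exposure. Percent mortality scored 24 hours after contact.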

[10] = test system: Boophilus microplus; assay: Boophilus microplus injection test; details: Rhipicephalus microplus, 168 h, 20 μg/animal, egg deposition after 7 days, read-out: efficacy (infertile eggs)
Procedure, shortened: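 Efficacy expresses the share of infertile eggs (100% all infertile, 0% all fertile), judged at 7 days or at hatching around day 42. Five adult engorged females were each injected abdominally with 1 μl of DMSO compound solution and incubated in a climate chamber.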

[11] = test system: Nilaparvata lugens; assay: Nilaparvata lugens spray test; details: Nilaparvata lugens, in Oryza sativa, 96 h
Method: Nilaparvata lugens—Spray Test
as §1
Rice plants (Oryza sativa) are sprayed with a preparation of the active ingredient of the desired concentration and the plants are infested with the brown planthopper (Nilaparvata lugens).
After 4 days mortality in % is determined. 100% means all planthoppers have been killed and 0% means none of the planthoppers have been killed.

[12] = test system: Myzus persicae; assay: Myzus persicae spray test; details: in Brassica rapa, foliar, 120 h
Method: Myzus persicae—Spray Test
as §1
Chinese cabbage (Brassica pekinensis) leaf disks infected with all instars of the green peach aphid (Myzus persicae), are sprayed with a preparation of the active ingredient of the desired concentration.
After 5 days mortality in % is determined. 100% means all aphids have been killed and 0% means none of the aphids have been killed.

[13] = test system: Musca domestica strain WHO-N; assay: Musca domestica test (MUSCDO surface treatment & contact assay); details: 24 hours after contact, read-out: efficacy (mortality); for mortality at 20 mg/m2: surface concentration 20 mg/m^2, 30 minutes exposure; for mortality at 4 mg/m2: surface concentration 4 mg/m^2, 30 minutes exposure
Method: Musca domestica Test (MUSCDO Surface Treatment & Contact Assay)
as §2
In order to produce a sufficient, active ingredient containing solution it is necessary to solve the test-compound in the solvent-mix (Acetone at 2 mg/ml/RME 2000 ppm). This solution is pipetted onto a glazed tile and after evaporation of the Acetone, adult flies of the species Musca domestica strain WHO-N are placed onto the dried surface. The exposure time is 30 minutes.
as §3

[14] = test system: Culex quinquefasciatus strain P00; assay: Culex quinquefasciatus test (CULXFA surface treatment & contact assay); details: 24 hours after contact, read-out: efficacy (mortality); for mortality at 4 mg/m2: surface concentration 4 mg/m^2, 30 minutes exposure; for mortality at 20 mg/m2: surface concentration 20 mg/m^2, 30 minutes exposure
Procedure, shortened: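 Compound dissolved in acetone (2 mg/ml) with 2000 ppm rapeseed oil methyl ester, applied to glazed tile and dried. Adult strain P00 mosquitoes exposed to the surface for 30 minutes. Percent mortality scored 24 hours after contact.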

CC(c1ncnn1-c1ncccn1)N(CC1CC1)C(=O)c1cc(Cl)cc(Cl)c1Cl (stereo not shown) [Example I-009]
mortality at 4 ppm [1]: 100%
mortality at 20 ppm [1]: 100%
pest or weed control at 160 µg/disc, 160 µg/well [2]: 100%
mortality at 500 g/ha [3]: 100%
mortality at 500 g/ha [4]: 100%
mortality at 100 ppm [5]: 100%

CC(c1ncnn1-c1ncccn1)N(CC1CC1)C(=O)c1cc(-c2ccccc2)cc(C(F)(F)F)c1 (stereo not shown) [Example I-010]
mortality at 500 g/ha [3]: 100%
mortality at 100 ppm [5]: 100%

CC(c1ncnn1-c1ncccn1)N(CC1CC1)C(=O)c1cc(-c2ccc(F)cc2)cc(C(F)(F)F)c1 (stereo not shown) [Example I-012]
mortality at 20 ppm [1]: 100%
pest or weed control at 160 µg/disc, 160 µg/well [2]: 100%
mortality at 500 g/ha [3]: 100%
mortality at 500 g/ha [4]: 100%
mortality at 100 ppm [5]: 100%

CC(c1ncnn1-c1ncccn1)N(CC1CC1)C(=O)c1cccc(Cl)c1Cl (stereo not shown) [Example I-016]
mortality at 500 g/ha [6]: 100%
pest or weed control at 160 µg/disc, 160 µg/well [2]: 100%
mortality at 500 g/ha [3]: 100%

CC(c1ncnn1-c1ncccn1)N(CC1CC1)C(=O)c1cc(Cl)c(Cl)s1 (stereo not shown) [Example I-024]
pest or weed control at 5 µg/cm2, 5 µg/cm2 [7]: 100%
mortality at 4 mg/m2 [8]: 85 to 100%
mortality at 20 mg/m2 [8]: 85 to 100%
mortality at 4 ppm [1]: 100%
mortality at 20 ppm [1]: 100%
pest or weed control at 160 µg/disc, 160 µg/well [2]: 100%
mortality at 20 mg/m2 [9]: 90 to 100%
pest or weed control at 0.02 mg [10]: 100%
mortality at 500 g/ha [11]: 100%
mortality at 500 g/ha [3]: 100%
mortality at 100 ppm [5]: 100%

CC(c1ncnn1-c1ncccn1)N(CC1CC1)C(=O)c1c(Cl)c(C(F)(F)F)nn1C (stereo not shown) [Example I-026]
pest or weed control at 160 µg/disc, 160 µg/well [2]: 100%
mortality at 500 g/ha [3]: 100%

CC(c1ncnn1-c1ncccn1)N(CC1CC1)C(=O)c1cc(C2CC2)on1 (stereo not shown) [Example I-028]
pest or weed control at 160 µg/disc, 160 µg/well [2]: 100%
mortality at 500 g/ha [3]: 100%
mortality at 100 ppm [5]: 100%

C[C@@H](NC(=O)c1cc(Cl)cc(S(=O)(=O)c2ccc(F)cc2)c1)c1ncnn1-c1ncccn1 [Example I-043]
pest or weed control at 5 µg/cm2, 5 µg/cm2 [7]: 90%
mortality at 500 g/ha [6]: 100%
mortality at 4 ppm [1]: 100%
pest or weed control at 160 µg/disc, 160 µg/well [2]: 100%
mortality at 4 mg/m2 [9]: 80 to 100%
mortality at 20 mg/m2 [9]: 90 to 100%
mortality at 500 g/ha [12]: 90%
pest or weed control at 0.02 mg [10]: 100%
mortality at 500 g/ha [11]: 100%
mortality at 500 g/ha [4]: 100%
mortality at 20 mg/m2 [13]: 80 to 100%
mortality at 100 ppm [5]: 100%
mortality at 4 mg/m2 [14]: 80 to 100%
mortality at 20 mg/m2 [14]: 80 to 100%

C[C@@H](NC(=O)c1cc(Cl)cc(S(=O)(=O)C(F)(F)F)c1)c1ncnn1-c1ccccn1 [Example I-068]
pest or weed control at 5 µg/cm2, 5 µg/cm2 [7]: 90%
mortality at 500 g/ha [6]: 100%
mortality at 4 mg/m2 [8]: 85 to 100%
mortality at 20 mg/m2 [8]: 85 to 100%
mortality at 4 ppm [1]: 90%
pest or weed control at 160 µg/disc, 160 µg/well [2]: 100%
mortality at 4 mg/m2 [9]: 80 to 100%
mortality at 20 mg/m2 [9]: 90 to 100%
pest or weed control at 0.02 mg [10]: 100%
mortality at 500 g/ha [4]: 100%
mortality at 4 mg/m2 [13]: 80 to 100%
mortality at 20 mg/m2 [13]: 80 to 100%
mortality at 100 ppm [5]: 100%
mortality at 4 mg/m2 [14]: 80 to 100%
mortality at 20 mg/m2 [14]: 80 to 100%

C[C@@H](NC(=O)c1cc(Cl)cc([S+](C)[O-])c1)c1ncnn1-c1ccc(C#N)cn1 (stereo partly shown) [Example I-070]
pest or weed control at 5 µg/cm2, 5 µg/cm2 [7]: 100%
mortality at 500 g/ha [6]: 100%
mortality at 4 mg/m2 [8]: 85 to 100%
mortality at 20 mg/m2 [8]: 85 to 100%
mortality at 4 ppm [1]: 100%
pest or weed control at 160 µg/disc, 160 µg/well [2]: 100%
mortality at 4 mg/m2 [9]: 80 to 100%
mortality at 20 mg/m2 [9]: 90 to 100%
mortality at 500 g/ha [12]: 100%
pest or weed control at 0.02 mg [10]: 100%
mortality at 500 g/ha [4]: 100%
mortality at 20 mg/m2 [13]: 80 to 100%
mortality at 100 ppm [5]: 100%
mortality at 4 mg/m2 [14]: 80 to 100%
mortality at 20 mg/m2 [14]: 80 to 100%

C[C@@H](NC(=O)c1cc(Cl)cc(S(=O)(=O)C(F)(F)F)c1)c1ncnn1-c1cnccn1 [Example I-074]
pest or weed control at 5 µg/cm2, 5 µg/cm2 [7]: 90%
mortality at 500 g/ha [6]: 100%
mortality at 4 ppm [1]: 100%
pest or weed control at 160 µg/disc, 160 µg/well [2]: 100%
mortality at 20 mg/m2 [9]: 90 to 100%
mortality at 500 g/ha [12]: 90%
pest or weed control at 0.02 mg [10]: 100%
mortality at 500 g/ha [4]: 100%
mortality at 20 mg/m2 [13]: 80 to 100%
mortality at 100 ppm [5]: 100%
mortality at 20 mg/m2 [14]: 80 to 100%

C[C@@H](NC(=O)c1cc(C(F)(F)F)n(C)n1)c1ncnn1-c1ncccn1 [Example I-100]
mortality at 500 g/ha [6]: 100%
mortality at 4 mg/m2 [8]: 85 to 100%
mortality at 20 mg/m2 [8]: 85 to 100%
pest or weed control at 160 µg/disc, 160 µg/well [2]: 100%
mortality at 4 mg/m2 [9]: 80 to 100%
mortality at 20 mg/m2 [9]: 90 to 100%
mortality at 500 g/ha [12]: 90%
mortality at 500 g/ha [11]: 100%
mortality at 500 g/ha [4]: 100%
mortality at 4 mg/m2 [13]: 80 to 100%
mortality at 20 mg/m2 [13]: 80 to 100%
mortality at 4 mg/m2 [14]: 80 to 100%
mortality at 20 mg/m2 [14]: 80 to 100%
